In patent US7939537B2, “HIV integrase inhibitors” (Istituto Di Ricerche Di Biologia Molecolare P. Angeletti …, priority 2006, dated 2011):

Test system: HIV
Assay: Assay for inhibition of HIV replication (spread assay; acute HIV infection of T-lymphoid cells)
Type: cell-based
Conditions: Human immunodeficiency virus 1, tested up to 1 micromolar
Experimental: Assay for Inhibition of HIV Replication
Assays for the inhibition of acute HIV infection of T-lymphoid cells were conducted in accordance with Vacca, J. P. et al., Proc. Natl. Acad. Sci. USA 1994, 91: 4096. […] The compounds of Examples 6, 8, 9, 14, 15, 21-23 and 29-35 were also tested in the spread assay up to 1 micromolar, but specific IC95 values were not obtained; i.e., the IC95 values for these compounds are greater than 1 micromolar.

## O=C(NCc1ccc(F)cc1)c1nc2ccccn2c(=O)c1O [Example 1, N-(4-Fluorobenzyl)-3-hydroxy-4-oxo-4H-pyrido[1,2-a]pyrimidine-2-carboxamide]
  IC95: < 1000 nM

## CN(C(=O)CS(C)(=O)=O)c1cccn2c(=O)c(O)c(C(=O)NCc3ccc(F)cc3)nc12 [Example 2, N-(4-fluorobenzyl)-3-hydroxy-9-{methyl[(methylsulfonyl)acetyl]amino}-4-oxo-4H-pyrido[1,2-a]pyrimidine-2-carboxamide]
  IC95: < 1000 nM

## CCN(CC)C(=O)C(=O)N(CC)c1cccn2c(=O)c(O)c(C(=O)NCc3ccc(F)cc3)nc12 [Example 3, N-(4-fluorobenzyl)-3-hydroxy-9-[(N,N,N′-triethyl)-ethanediamide]-4-oxo-4H-pyrido[1,2-a]pyrimidine-2-carboxamide]
  IC95: < 1000 nM

## O=C(NCc1ccc(F)cc1)c1nc2c(OCc3ccccc3)cccn2c(=O)c1O [Example 4, N-(4-fluorobenzyl)-3-hydroxy-9-(benzyloxy)-4-oxo-4H-pyrido[1,2-a]pyrimidine-2-carboxamide]
  IC95: < 1000 nM

## O=C(NCc1ccc(F)cc1)c1nc2ccc(-c3ccccc3N3CCOCC3)cn2c(=O)c1O [Example 5]
  IC95: < 1000 nM

## CC(=O)N(C)c1cccn2c(=O)c(O)c(C(=O)NCc3ccc(F)cc3)nc12 [Example 6, 9-[acetyl(methyl)amino]-N-(4-fluorobenzyl)-3-hydroxy-4-oxo-4H-pyrido[1,2-a]pyrimidine-2-carboxamide]
  IC95: > 1000 nM

## CN(C(=O)c1ccccc1)c1cccn2c(=O)c(O)c(C(=O)NCc3ccc(F)cc3)nc12 [Example 7, 9-[benzoyl(methyl)amino]-N-(4-fluorobenzyl)-3-hydroxy-4-oxo-4H-pyrido[1,2-a]pyrimidine-2-carboxamide]
  IC95: < 1000 nM

## CNc1cccn2c(=O)c(O)c(C(=O)NCc3ccc(F)cc3)nc12 [Example 8, 9-[methylamino]-N-(4-fluorobenzyl)-3-hydroxy-4-oxo-4H-pyrido[1,2-a]pyrimidine-2-carboxamide]
  IC95: > 1000 nM

## CN(C)c1cccn2c(=O)c(O)c(C(=O)NCc3ccc(F)cc3)nc12 [Example 9, 9-[dimethylamino]-N-(4-fluorobenzyl)-3-hydroxy-4-oxo-4H-pyrido[1,2-a]pyrimidine-2-carboxamide]
  IC95: > 1000 nM

## CCNc1cccn2c(=O)c(O)c(C(=O)NCc3ccc(F)cc3)nc12 [Example 10, 9-[ethylamino]-N-(4-fluorobenzyl)-3-hydroxy-4-oxo-4H-pyrido[1,2-a]pyrimidine-2-carboxamide]
  IC95: < 1000 nM

## CN(C)C(=O)C(=O)N(C)c1cccn2c(=O)c(O)c(C(=O)NCc3ccc(F)cc3)nc12 [Example 11, N-(2-{[(4-fluorobenzyl)amino]carbonyl}-3-hydroxy-4-oxo-4H-pyrido[1,2-a]pyrimidin-9-yl)-N,N′,N′-trimethylethanediamide]
  IC95: < 1000 nM

## CCN(C(=O)C(=O)N(C)C)c1cccn2c(=O)c(O)c(C(=O)NCc3ccc(F)cc3)nc12 [Example 12, N-(2-{[(4-fluorobenzyl)amino]carbonyl}-3-hydroxy-4-oxo-4H-pyrido[1,2-a]pyrimidin-9-yl)-N-ethyl-N′,N′-dimethylethanediamide]
  IC95: < 1000 nM

## O=C(Nc1cccn2c(=O)c(O)c(C(=O)NCc3ccc(F)cc3)nc12)OCc1ccccc1 [Example 13, benzyl (2-{[(4-fluorobenzyl)amino]carbonyl}-3-hydroxy-4-oxo-4H-pyrido[1,2-a]pyrimidin-9-yl)carbamate]
  IC95: < 1000 nM

## O=C(Nc1cccn2c(=O)c(O)c(C(=O)NCc3ccc(F)cc3)nc12)c1ccccc1 [Example 14, 9-[benzoylamino]-N-(4-fluorobenzyl)-3-hydroxy-4-oxo-4H-pyrido[1,2-a]pyrimidine-2-carboxamide]
  IC95: > 1000 nM

## CCN(C(=O)c1ccncc1)c1cccn2c(=O)c(O)c(C(=O)NCc3ccc(F)cc3)nc12 [Example 15, 9-[ethyl(isonicotinoyl)amino]-N-(4-fluorobenzyl)-3-hydroxy-4-oxo-4H-pyrido[1,2-a]pyrimidine-2-carboxamide]
  IC95: > 1000 nM

## CCN(C(=O)c1ccccn1)c1cccn2c(=O)c(O)c(C(=O)NCc3ccc(F)cc3)nc12 [Example 16, 9-[ethyl(pyridin-2-ylcarbonyl)amino]-N-(4-fluorobenzyl)-3-hydroxy-4-oxo-4H-pyrido[1,2-a]pyrimidine-2-carboxamide]
  IC95: < 1000 nM

## CCCN(C(=O)C(=O)N(C)C)c1cccn2c(=O)c(O)c(C(=O)NCc3ccc(F)cc3)nc12 [Example 17, N-(2-{[(4-fluorobenzyl)amino]carbonyl}-3-hydroxy-4-oxo-4H-pyrido[1,2-a]pyrimidin-9-yl)-N-propyl-N′,N′-dimethylethanediamide]
  IC95: < 1000 nM

## CC(C)CN(C(=O)C(=O)N(C)C)c1cccn2c(=O)c(O)c(C(=O)NCc3ccc(F)cc3)nc12 [Example 18, N-(2-{[(4-fluorobenzyl)amino]carbonyl}-3-hydroxy-4-oxo-4H-pyrido[1,2-a]pyrimidin-9-yl)-N-isobutyl-N′,N′-dimethylethanediamide]
  IC95: < 1000 nM

## CCN(C(=O)C(=O)N1CCOCC1)c1cccn2c(=O)c(O)c(C(=O)NCc3ccc(F)cc3)nc12 [Example 19, N-(4-fluorobenzyl)-3-hydroxy-9-{ethyl[morpholin-4-yl(oxo)acetyl]amino}-4-oxo-4H-pyrido[1,2-a]pyrimidine-2-carboxamide]
  IC95: < 1000 nM

## CCN(C(=O)CN(C)C)c1cccn2c(=O)c(O)c(C(=O)NCc3ccc(F)cc3)nc12 [Example 20, 9-[(N,N-dimethylglycyl)(ethyl)amino]-N-(4-fluorobenzyl)-3-hydroxy-4-oxo-4H-pyrido[1,2-a]pyrimidine-2-carboxamide]
  IC95: < 1000 nM

## CCN(CC)CC(=O)N(CC)c1cccn2c(=O)c(O)c(C(=O)NCc3ccc(F)cc3)nc12 [Example 21, 9-[(N,N-diethylglycyl)(ethyl)amino]-N-(4-fluorobenzyl)-3-hydroxy-4-oxo-4H-pyrido[1,2-a]pyrimidine-2-carboxamide]
  IC95: > 1000 nM

## CCN(C(=O)CN1CCOCC1)c1cccn2c(=O)c(O)c(C(=O)NCc3ccc(F)cc3)nc12 [Example 22, 9-[ethyl(morpholin-4-ylacetyl)amino]-N-(4-fluorobenzyl)-3-hydroxy-4-oxo-4H-pyrido[1,2-a]pyrimidine-2-carboxamide]
  IC95: > 1000 nM

## CCN(C(=O)CN1CCN(C)CC1)c1cccn2c(=O)c(O)c(C(=O)NCc3ccc(F)cc3)nc12 [Example 23, 9-{ethyl[(4-methylpiperazin-1-yl)acetyl]amino}-N-(4-fluorobenzyl)-3-hydroxy-4-oxo-4H-pyrido[1,2-a]pyrimidine-2-carboxamide]
  IC95: > 1000 nM

## CCN(C(=O)c1cscn1)c1cccn2c(=O)c(O)c(C(=O)NCc3ccc(F)cc3)nc12 [Example 24, 9-[ethyl(1,3-thiazol-4-ylcarbonyl)amino]-N-(4-fluorobenzyl)-3-hydroxy-4-oxo-4H-pyrido[1,2-a]pyrimidine-2-carboxamide]
  IC95: < 1000 nM

## CCN(C(=O)c1ccno1)c1cccn2c(=O)c(O)c(C(=O)NCc3ccc(F)cc3)nc12 [Example 25, 9-[ethyl(isoxazol-5-ylcarbonyl)amino]-N-(4-fluorobenzyl)-3-hydroxy-4-oxo-4H-pyrido[1,2-a]pyrimidine-2-carboxamide]
  IC95: < 1000 nM

## CCN(C(=O)c1nnc(C)o1)c1cccn2c(=O)c(O)c(C(=O)NCc3ccc(F)cc3)nc12 [Example 26, 9-{ethyl[(5-methyl-1,3,4-oxadiazol-2-yl)carbonyl]amino}-N-(4-fluorobenzyl)-3-hydroxy-4-oxo-4H-pyrido[1,2-a]pyrimidine-2-carboxamide]
  IC95: < 1000 nM

## CCN(C(=O)C(=O)N1CCCC1)c1cccn2c(=O)c(O)c(C(=O)NCc3ccc(F)cc3)nc12 [Example 27, 9-{ethyl[oxo(pyrrolidin-1-yl)acetyl]amino}-N-(4-fluorobenzyl)-3-hydroxy-4-oxo-4H-pyrido[1,2-a]pyrimidine-2-carboxamide]
  IC95: < 1000 nM

## CCN(C(=O)C(=O)N1CCN(C)CC1)c1cccn2c(=O)c(O)c(C(=O)NCc3ccc(F)cc3)nc12 [Example 28, 4-[[ethyl(2-{[(4-fluorobenzyl)amino]carbonyl}-3-hydroxy-4-oxo-4H-pyrido[1,2-a]pyrimidin-9-yl)amino](oxo)acetyl]-1-methylpiperazine]
  IC95: < 1000 nM

## Cc1cccn2c(=O)c(O)c(C(=O)NCc3ccc(F)cc3)nc12 [Example 29, N-(4-fluorobenzyl)-3-hydroxy-9-methyl-4-oxo-4H-pyrido[1,2-a]pyrimidine-2-carboxamide]
  IC95: > 1000 nM

## CN(C)Cc1cccn2c(=O)c(O)c(C(=O)NCc3ccc(F)cc3)nc12 [Example 30, 9-[(dimethylamino)methyl]-N-(4-fluorobenzyl)-3-hydroxy-4-oxo-4H-pyrido[1,2-a]pyrimidine-2-carboxamide]
  IC95: > 1000 nM

## CON(C)Cc1cccn2c(=O)c(O)c(C(=O)NCc3ccc(F)cc3)nc12 [Example 31, N-(4-fluorobenzyl)-3-hydroxy-9-{[methoxy(methyl)amino]methyl}-4-oxo-4H-pyrido[1,2-a]pyrimidine-2-carboxamide]
  IC95: > 1000 nM

## O=C(NCc1ccc(F)cc1)c1nc2c(CN3CCOCC3)cccn2c(=O)c1O [Example 32, N-(4-fluorobenzyl)-3-hydroxy-9-(morpholin-4-ylmethyl)-4-oxo-4H-pyrido[1,2-a]pyrimidine-2-carboxamide]
  IC95: > 1000 nM

## CC(=O)N1CCN(Cc2cccn3c(=O)c(O)c(C(=O)NCc4ccc(F)cc4)nc23)CC1 [Example 33, 9-[(4-acetylpiperazin-1-yl)methyl]-N-(4-fluorobenzyl)-3-hydroxy-4-oxo-4H-pyrido[1,2-a]pyrimidine-2-carboxamide]
  IC95: > 1000 nM

## O=C(NCc1cccn2c(=O)c(O)c(C(=O)NCc3ccc(F)cc3)nc12)c1ccccc1 [Example 34, 9-[(benzoylamino)methyl]-N-(4-fluorobenzyl)-3-hydroxy-4-oxo-4H-pyrido[1,2-a]pyrimidine-2-carboxamide]
  IC95: > 1000 nM
